Results taken from patent US9402819B2, “Anti-HIV compound and preparation method and use thereof” (Sichuan University, priority 2012, dated 2016).
Converted amounts (≈) assume the structure as drawn.

Experiments:
HIV-2 ROD = assay: Activity for HIV-2 ROD; conditions: for TI: HIV-2 ROD; for EC50: Human immunodeficiency virus 2
[1] = Activity for HIV-2 CBL-20
HIV-2 CBL-20 = assay: Activity for HIV-2 CBL-20; conditions: for TI: HIV-2 CBL-20; for EC50: Human immunodeficiency virus 2
HIV-1IIIB [2] = assay: Anti-HIV activity in C8166 cells; assay type: cell-based; conditions: C8166 cells; for TI: CC50/EC50; for EC50: Human immunodeficiency virus 1, HIV-1IIIB, read-out: EC50
Method: (§1) The anti-HIV activity was determined by the “Guiding Principles of Anti HIV Drug Unclinical Pharmacodynamics” of SFDA which is tested by technology standard assay according to International Universal Standards and Methods. Where in CC50, EC50 were measured twice and took the average.

[3] = Cytotoxicity (CC50) in C8166 cells; assay type: cell-based; conditions: human
Method: as §1

[4] = Cytotoxicity (CC50) in H9 cells; assay type: cell-based, human; conditions: human, read-out: CC50
Method: as §1

HIV-1IIIB [5] = assay: Anti-HIV activity in H9 cells; assay type: cell-based; conditions: H9 cells; for TI: CC50/EC50; for EC50: Human immunodeficiency virus 1, HIV-1IIIB, read-out: EC50
Method: as §1

[6] = for safety at high dose: high dose (10 g/kg); for acute toxicity test finding: in vivo
HIVKM018 = assay: microbe, parasite or virus in culture; conditions: Human immunodeficiency virus 1
HIV-1TC-1 = assay: microbe, parasite or virus in culture; conditions: Human immunodeficiency virus 1
HIV-1A17 = assay: microbe, parasite or virus in culture; conditions: Human immunodeficiency virus 1
H9 cells = assay: Cytotoxicity (CC50) in H9 cells; assay type: cell-based, human
Method: as §1

[7] = Solubility in aqueous solution; assay type: physicochemical
Text: Solubility is an important parameter of druggability. […] They are with good solubility and can be formulated into an oral formulation. The prodrugs can be hydrolyzed into 46 which is with good fat-solubility and TI as well as distribution.

[8] = Stability (degradation) in solutions of different pH; assay type: physicochemical
Method: For example, compound 67 was tested in solutions with PH=4.004, 6.864 and 9.182, and its degradation rate was […]. […] As to the Mechanism of action of the compounds, the possible binding mode between 46 and vif was predicted by docking There are five possible hydrogen bonds between them: two hydrogen bonds between the nitro group and Arg79 and Lys178, two hydrogen bonds between the oxygen atom of methoxyl group with His141 and Arg97, one hydrogen bond between the nitrogen atom of pyridine with Gly103. (The binding mode can be seen in FIG. 4)

[9] = simulated gastric fluid, in aqueous solution (pH=2)

Compound | TI (HIV-2 ROD) | EC50 (HIV-2 ROD) [µg/mL] | CC50 (Activity for HIV-2 ROD) [µg/mL] | CC50 [1] [µg/mL] | TI (HIV-2 CBL-20) | EC50 (HIV-2 CBL-20) [µg/mL] | TI (HIV-1IIIB [2]) | EC50 (HIV-1IIIB [2]) [µg/mL] | CC50 [3] [µg/mL] | CC50 ([4]; H9 cells) [µg/mL] | TI (HIV-1IIIB [5]) | EC50 (HIV-1IIIB [5]) [µg/mL] | safety at high dose [6] | acute toxicity test finding [6] | solubility [7, 9] [µg/mL] | other results
COc1ccccc1NC(=O)c1c(N)cccc1Sc1ccc([N+](=O)[O-])cc1 [Compound 25, 2-amino-N-(2-methoxyphenyl)-6-(4-nitrophenylthi-o)benzamide] | 312.90 | 0.59 (≈ 1.49 µM) | 185 (≈ 467 µM) | 164 (≈ 414 µM) | 199.72 | 0.82 (≈ 2.07 µM) | 310.02 | 0.21 (≈ 0.531 µM) | 65.4 (≈ 165 µM) | 153 (≈ 387 µM) | 206.68 | 0.74 (≈ 1.87 µM) |  |  |  | 
COc1ccccc1NC(=O)c1c(N)cccc1S(=O)(=O)c1ccc([N+](=O)[O-])cc1 [Compound 46, 2-amino-N-(2-methoxyphenyl)-6-((4-nitroph-enyl)sulfonyl)benzamide] | 487.8 | 0.41 (≈ 0.959 µM) | > 200 | > 200 | 444.44 | 0.45 (≈ 1.05 µM) |  | 0.096 (≈ 0.225 µM) | 141 (≈ 329 µM) |  |  | 0.66 (≈ 1.54 µM) | very safe | no abnormal phenomenon occurred |  | EC50 (HIVKM018): 6.23 µg/mL (≈ 14.6 µM); EC50 (HIV-1TC-1): 0.11 µg/mL (≈ 0.257 µM); CC50 [4]: > 200 µg/mL; EC50 (HIV-1A17): 18.7 µg/mL (≈ 43.8 µM)
COc1ccccc1NC(=O)c1c(N)cccc1Oc1ccc([N+](=O)[O-])cc1 [Compound 48, 2-amino-N-(2-methoxyphenyl)-6-(4-nitrop-henoxy)benzamide] |  |  |  |  |  |  |  |  |  |  | 2.14 |  |  |  |  | CC50 (H9 cells): 76.60 µg/mL (≈ 202 µM)
COc1ccccc1NC(=O)c1c(NC(=O)CN)cccc1Sc1ccc([N+](=O)[O-])cc1.Cl [Compound 66, 2-(2-aminoacetamido)-N-(2-methoxyphenyl)-6-(4-nitrophenylthio)benzamide hydrochloride] |  |  |  |  |  |  | 97.01 | 0.81 | 78.3 | 72.3 | 451.69 | 0.16 |  |  | 1290 | 
COc1ccccc1NC(=O)c1c(NC(=O)CN)cccc1S(=O)(=O)c1ccc([N+](=O)[O-])cc1.Cl [Compound 67, 2-(2-aminoacetamido)-N-(2-methoxyphenyl)-6-((4-nitrophenyl)sulfonyl)benzamide hydrochloride hydrochloride] |  | 0.78 | 126 | 106 |  | 1.21 |  |  | 165 | 94.9 |  |  | very safe | no abnormal phenomenon occurred |  | solubility ([7]; aqueous buffer, in water with pH=7): 1730 µg/mL; degradation rate ([8]; solution PH=4.004): 0.2767; degradation rate ([8]; solution PH=6.864): 0.4956; degradation rate ([8]; solution PH=9.182): 9.182
COc1ccccc1NC(=O)c1c(NC(=O)C(N)CCCCN)cccc1Sc1ccc([N+](=O)[O-])cc1.Cl (stereo not drawn) [Compound 68, 2-(2,6-diaminohexanamido)-N-(2-methoxyphenyl)-6-((4-nitrophenyl)thio)benzamide hydrochloride] |  |  |  |  |  |  |  |  | 116 | 90.1 |  |  |  |  | 2850 | 
